Source: US20080207498A1, “Methods for Treating Alzheimer's Disease” (priority 2005, published 2008)

Tests used:
FcγIIb = assay: Inhibition of FcR binding, reverse ELISA with PAP immune complexes; settings: PAP pre-incubated with peptide one hour, one hour on FcγR coated plates; lower OD = more inhibition; positive control 1.394
Description: (§1) For this reason, a “reverse ELISA” technique was used to assess binding of the Fc region to ligands that bind to immune complexed IgG Fc. In a reverse ELISA, the enzyme (e.g., HRP) is not covalently conjugated to the Fc portion of the secondary antibody. Rather, a preformed immune complex of peroxidase-rabbit (or mouse) anti-peroxidase IgG (“PAP” complex) is used. […] In these experiments, an Fc CH2-CH3 cleft binding ligand (e.g., purified human C1q) was bound to microwell plates. In the absence of competitor, PAP complexes bound to the immobilized ligand and the reaction between HRP and its substrate produced a signal. This signal was reduced by polypeptides and compounds provided herein that inhibited PAP binding to the immobilized ligand.
(§2) Once the reverse ELISA protocol was established using the C1q assay, the assay was redesigned using […], FcγIIb, and FcγIII in place of C1q. Highly purified FcγIIa, FcγIIb and FcγIII were immunoadsorbed onto plastic microwells. After optimizing the FcγR reverse ELISA system, simple competitive inhibition experiments using polypeptides provided herein were conducted to investigate their ability to inhibit binding of immune complexes to purified FcγR.
(§3) Falcon microtiter plates were coated with 1:10 dilutions of highly purified FcγIIa, FcγIIb and FcγIII and incubated for 24 hours. The plates were washed and then blocked with 5×BSA blocking solution (Alpha Diagnostic International, San Antonio, Tex.) for 24 hours. PAP immune complexes were formed as described above. PAP (100 μl) were pre-incubated with 100 μl of peptide for one hour. PAP/peptide mixtures were added to the FcγR coated plates and incubated for one hour. After washing, plates were incubated with ABTS substrate for 15 minutes and read at 405 nm.

FcγIII = assay: as above; settings: PAP pre-incubated with peptide one hour, one hour on FcγR coated plates; lower OD = more inhibition; positive control 1.588
Description: as §1, §2, §3

purified human C1q = assay: Inhibition of C1q binding, reverse ELISA with PAP immune complexes; settings: for inhibition of C1q binding, ranking in words: comment on Table 1
Description: as §1
PAP complexes were formed mixing 2 μl of rabbit anti-peroxidase (Sigma Chemicals, St. Louis, Mo.) with 50 μl of peroxidase (Sigma-Aldrich, St. Louis, Mo.) in 1 ml distilled water. PAP (100 μl) were pre-incubated with 100 μl of peptide for one hour, 100 μl were pre-incubated with 100 μl of peptide or human C1q (Quidel Corp., San Diego, Calif.) for one hour. The C1q/PAP and peptide/PAP mixtures (100 μl) were incubated with C1q coated plates for 30 minutes. After washing, plates were incubated with ATBS (Quidel Corp.) for 15 minutes and read at 405 nm.

[1] = tested on: human wt tau protein (441 residues); assay: Inhibition of immune complexed IgG binding to wt tau, reverse ELISA; settings: for Wt tau protein (read at 405 nm): PAP pre-incubated with peptide one hour, 60 minutes on tau coated plates (16.7 μg/ml), positive control 0.695, substrate only 0.060
Description: as §1
PAP complexes were formed by mixing 2 μl of rabbit anti-peroxidase with 50 μl of peroxidase in 1 ml distilled water. PAP (100 μl) were pre-incubated with 100 μl of peptide for one hour. Control PAP (200 μl) also was incubated for one hour. 100 μl of either PAP or PAP/peptide was added to Falcon microtiter plates that had been coated for 24 hours with 16.7 μg/ml human wt tau protein (441 residues; Sigma-Aldrich). The PAP or peptide/PAP mixtures (100 μl) were added after one hour to tau coated plates and incubated for 60 minutes. After washing, plates were incubated with ATBS for 15 minutes, and read at 405 nm.

IgG Fc = assay: Binding of SEQ ID NO:16 to IgG Fc, alanine substitution; settings: alanine substitution of SEQ ID NO:16 Val-13 or Trp-14
[2] = tested on: human wt β amyloid peptide 1-40; assay: Inhibition of immune complexed IgG binding to wt β-amyloid peptide, reverse ELISA; settings: for Wt 1-40 β-amyloid peptide (read at 405 nm): PAP pre-incubated with peptide one hour, 60 minutes on β-amyloid coated plates (33 μg/ml), positive control 3.278, substrate only 0.061
Description: as §1
Different fragments of the Aβ peptide contribute to the amyloid plaques pathognomic for AD, and these Aβ fragments appear to stimulate microglial activation and subsequent AD neuropathology. Thus, experiments were conducted to test Aβ 1-40 for binding to immune complexes, and to determine whether the inhibitors described herein can inhibit binding of PAP immune complexes to Aβ peptide. PAP complexes were prepared by mixing 2 μl of rabbit anti-peroxidase with 50 μl of peroxidase in 1 ml distilled water. PAP (100 μl) were pre-incubated with 100 μl of peptide for one hour. Control PAP (200 μl) also were incubated for one hour, and 100 μl of either PAP or PAP/peptide was added to Falcon microtiter plates that had been coated for 24 hours with 33 μg/ml human wt β amyloid peptide 1-40 (amyloid precursor protein (APP) fragment 1-40; Sigma-Aldrich) having the sequence […]Ans-Lys-Gly-Ale-[…](SEQ ID NO:39). The PAP or peptide/PAP mixtures were incubated on the β-amyloid peptide coated plates for 60 minutes. After washing, plates were incubated with ATBS for 15 minutes and read at 405 nm.

FcR = assay: Inhibition of FcR binding to PAP; settings: comment on Table 2
Protocol: as §2, §3

FcγIIa = assay: Inhibition of FcR binding, reverse ELISA with PAP immune complexes; settings: PAP pre-incubated with peptide one hour, one hour on FcγR coated plates; lower OD = more inhibition; positive control 1.599
Description: as §1, §2, §3

Sequence | FcγIIb (read at 405 nm) (FcγIIb) | FcγIII (read at 405 nm) (FcγIII) | inhibition of C1q binding, ranking in words (purified human C1q) | Wt tau protein (read at 405 nm) [1] | Wt 1-40 β-amyloid peptide (read at 405 nm) [2] | further results
APPCAFHLGELVWCT | 0.380 | 0.880 |  |  |  | 
APPCARHLGELVWCT |  |  | next best result |  |  | 
APPCAWHLGELVWCT |  | 0.530 |  |  |  | 
APPDCAWHLGELVWCT |  | 0.670 | greatest inhibition of C1q binding, almost equaling C1q itself | 0.059 | 0.885 | inhibition of human wt tau protein binding to PAP, ranking in words ([1]; comment on Table 3): greatest inhibition; ΔΔG, disruption of binding (IgG Fc): ≥ 8.37 kJ/mol; inhibition of FcR binding to PAP, ranking in words (FcR): greatest inhibition
DCAFHLGELVWCT | 0.510 | 0.810 |  |  |  | FcγIIa (read at 405 nm) (FcγIIa): 0.660
DCAWHLGELVWCT |  |  |  | 0.322 | 0.151 | OD 405 nm (purified human C1q; PAP pre-incubated with peptide or C1q for one hour, 30 minutes on C1q coated plates, lower OD = more inhibition, positive control 2.355): 1.100; inhibition of human wt β amyloid peptide binding to PAP, ranking in words ([2]; comment on Table 4): greatest inhibition
